Results: ChEMBL document CHEMBL1914419, “Discovery of aryloxy tetramethylcyclobutanes as novel androgen receptor antagonists” (J Med Chem, 2011)

Test: Intrinsic clearance in human liver microsomes
Format: ADME, Microsome

microsomal CLint | Compound
40 µL/min/mg | Cc1cc(C(=O)N[C@H]2C(C)(C)[C@H](Oc3ccc(C#N)c(Cl)c3)C2(C)C)nn1C
< 7 µL/min/mg | CC(=O)N[C@H]1C(C)(C)[C@H](Oc2ccc(C#N)c(C#N)c2)C1(C)C
< 7 µL/min/mg | CC(=O)N[C@H]1C(C)(C)[C@H](Oc2ccc(C#N)c(C)c2)C1(C)C
< 8 µL/min/mg | CC1(C)[C@H](NC(=O)c2cn[nH]c2)C(C)(C)[C@H]1Oc1ccc(C#N)c(Cl)c1
19 µL/min/mg | Cc1nc2ncccn2c1C(=O)N[C@H]1C(C)(C)[C@H](Oc2ccc(C#N)c(Cl)c2)C1(C)C
< 12 µL/min/mg | CC1(C)[C@H](NC(=O)c2ccn(CCO)n2)C(C)(C)[C@H]1Oc1ccc(C#N)c(Cl)c1

Further lines, the compound ahead of its results:

Compound | microsomal CLint
CC(=O)N[C@H]1C(C)(C)[C@H](Oc2ccc(C#N)c(Cl)c2)C1(C)C | < 8 µL/min/mg
CC(=O)N[C@H]1C(C)(C)[C@H](Oc2ccc(C#N)c(C(F)(F)F)c2)C1(C)C | 11 µL/min/mg
CC(=O)N[C@H]1C(C)(C)[C@H](Oc2ccc(C#N)cc2Cl)C1(C)C | 17.5 µL/min/mg
CC1(C)[C@H](NC(=O)c2cnccn2)C(C)(C)[C@H]1Oc1ccc(C#N)c(Cl)c1 | 9.8 µL/min/mg
Cn1cc(C(=O)N[C@H]2C(C)(C)[C@H](Oc3ccc(C#N)c(Cl)c3)C2(C)C)cn1 | 9 µL/min/mg
Cc1nnc(C(=O)N[C@H]2C(C)(C)[C@H](Oc3ccc(C#N)c(Cl)c3)C2(C)C)o1 | 29 µL/min/mg
CC1(C)[C@H](NC(=O)c2cnc3ncccn23)C(C)(C)[C@H]1Oc1ccc(C#N)c(Cl)c1 | < 10 µL/min/mg
COCCn1ccc(C(=O)N[C@H]2C(C)(C)[C@H](Oc3ccc(C#N)c(Cl)c3)C2(C)C)n1 | 57 µL/min/mg
CC1(C)[C@H](NC(=O)c2cnn(CCO)c2)C(C)(C)[C@H]1Oc1ccc(C#N)c(Cl)c1 | 11 µL/min/mg
CC1(C)[C@H](NC(=O)c2ccn(CCC#N)n2)C(C)(C)[C@H]1Oc1ccc(C#N)c(Cl)c1 | 25 µL/min/mg
CN(C)C(=O)Cn1ccc(C(=O)N[C@H]2C(C)(C)[C@H](Oc3ccc(C#N)c(Cl)c3)C2(C)C)n1 | 15 µL/min/mg
Cc1nc(O[C@H]2C(C)(C)[C@H](NC(=O)c3cnc4ncccn34)C2(C)C)ccc1C#N | < 8 µL/min/mg
